Experimental data from patent publication US20200253959A1, “COMPOUNDS AND PHARMACEUTICAL COMPOSITIONS THEREOF FOR USE IN THE TREATMENT OF FIBROTIC DISEASES” (Galapagos NV, priority 2017, published 2020).
“And” between values parts separate entries of the source, which are not always exact repeats. Equal entries are not always repeated.

Key:
[1] = test system: LPA 18:2; test: Human plasma assay for the reduction of LPA 18:2; format: biochemical
[2] = test system: LPA C8:2; test: Plasma LPA reduction in healthy volunteers (PK/PD correlation in plasma); format: in vivo, human
Excerpt: (§1) A first trial is a randomized, double-blind, placebo-controlled, single center study evaluating single ascending doses (SAD) and multiple ascending (MAD) doses of compound 1 in healthy male volunteers (see Van der Aar E M, 2016).

[3] = test system: subjects with IPF; test: Clinical study in IPF subjects: pulmonary function by spirometry (FVC); format: in vivo, human
Method: The study is a randomized, double-blind, parallel group, placebo-controlled, multicenter study to evaluate the test compound in subjects with IPF.
At baseline, after the subject's eligibility for the study has been confirmed, subjects are randomized in a 3:1 ratio test compound (600 mg q.d.) : matching placebo administered for 12 weeks.
Subjects receive 600 mg of test compound (3 capsules of 200 mg) or placebo q.d. for 12 weeks administered in the morning.
Pulmonary function will be assessed through spirometry both performed at the study center (at screening, baseline, and thereafter post dose at the time points indicated in the study schedule and according to sequence of study assessments) and at home (at baseline and thereafter post dose; on a daily basis in the morning). Specific instructions on how to perform the spirometry at home are provided in a separate spirometry user manual.
The following parameters will be measured as part of the spirometry assessment: • FEV1 (L) and percent predicted FEV1 • FVC (L) and percent predicted FVC • FEV1/FVC ratio • Forced expiratory flow (FEF) between 25 and 75% of exhaled volume (FEF25-75)

[4] = Test compound plasma levels and PK parameters in IPF patients (LC-MS/MS, non-compartmental analysis); format: in vivo, human; conditions: for Compound I concentration: listed as Compound I
Method: The test compound plasma levels were determined by LC-MS/MS and PK parameters by non-compartmental analysis using Phoenix WinNonlin.

[5] = test system: LPA 18:2; test: LPA 18:2 levels in blood samples of IPF subjects; format: in vivo, human; conditions: for LPA 18:2 % reduction: IPF patients, plasma
Method: (§2) Blood samples of 14 mL will be collected predose by venipuncture (or indwelling catheter for pharmacokinetic sampling days) in the arm at the time points indicated in the study flow chart and according to sequence of study assessments.
From the blood samples, the LPA 18:2 levels are determined using laboratory techniques.

[6] = test system: subjects with IPF; test: Functional respiratory imaging (FRI) from HRCT in IPF subjects; format: in vivo, human
Excerpt: HRCT will be performed (post dose if applicable) at the time points indicated in the study chart (see 1.4 above) and according to sequence of study assessments. HRCT scans will be used to generate FRI measurements allowing for an evaluation of regional IPF disease manifestation and disease progression. In case the subject is on bronchodilators, he/she can use the bronchodilator after the spirometry but prior to HRCT for FRI parameters.
At each computed tomography (CT) assessment an inspiratory and an expiratory scan will be taken. During the baseline visit an additional scan of the upper airway will be taken. The inspiratory and an expiratory scan will expose the subject to a total radiation dose of approximately 4-5 mSv per visit, including the initial CT localizer radiograph (topogram scout). The upper airway scan will expose a subject to approximately 1 mSv. A radiation dose of approximately 2-2.5 mSv is equivalent to approximately 1 year of background radiation (based on the assumption of an average “effective dose” from natural background radiation is of 3.1 mSv per year in the US and 2.4 mSv per year in Europe. (USNRC, 2014; WNA, 2015)
All CT images will be imported into Mimics, a commercial, medical image processing software package (Materialise, Leuven, Belgium, Food and Drug Administration, K073468; CE certificate, BE 05/1191 CE01) for analysis. This software package converts the HRCT images into patient specific, 3-dimensional computer models of the lung lobes, the airway lumen and wall, and the vascular tree. The airway and vascular tree are evaluated at functional residual capacity (FRC) and total lung capacity (TLC) level and can be segmented down to bronchi/vessels with a diameter of around 1-2 mm. Beyond this point the HRCT resolution is insufficient to distinguish alveolar and intraluminal air, or blood vessel tissue and surrounding lung tissues. A typical airway model includes 5-10 generations, depending mainly on the disease state of the individual patient. Afterwards the airway lumen models will be processed further to obtain a model that is suitable for flow calculations.
The following FRI parameters based on low-dose inspiratory-expiratory multi-slice CT images and computational fluid dynamics flow simulations will be evaluated. • lobar volumes at FRC and TLC • airway volumes at FRC and TLC • airway resistance • internal lobar airflow distribution • low attenuation or emphysema score at TLC • blood vessel density or fibrosis score at TLC • airway wall thickness at TLC • air trapping at FRC • mass of deposited particles per defined airway section

[7] = test system: surfactant protein A; test: Biomarker analysis surfactant protein A in blood of IPF subjects; format: in vivo, human; conditions: following 12 weeks of treatment
Method: as §2
The following exploratory biomarkers are evaluated in blood samples: • KL-6/Muc1 • surfactant protein A and D • CCL18 • ATX • MMP1, MMP7 • markers of extracellular matrix (ECM) turnover (neoepitope assay)

[8] = Compound plasma concentration in healthy volunteers (PK/PD correlation in plasma); format: in vivo, human; conditions: listed as Compound I
Excerpt: as §1

IC50 in human plasma assay for the reduction of LPA 18:2 [1]: 0.143 µg/mL
Compound I concentration ([4]; Week 4 - 0 h post-dose (second line so labelled, r10), plasma): 6557 nM and 3860 ng/mL
Compound I concentration ([4]; Week 4 - 0 h post-dose, plasma): 1020 nM and 604 ng/mL
Compound I concentration ([4]; Week 12 - 0 h post-dose, plasma): 1698 nM and 1000 ng/mL
AUC ([4]; human, plasma, oral, week 4, 600 mg q.d., read-out: mean area under the plasma concentration time curve for the dosing interval of 24 hours (AUC0-τ)): 55600 ng·h/mL
Cmax ([4]; human, plasma, oral, week 4, 600 mg q.d., read-out: median maximum observed plasma concentration (Cmax)): 6060 ng/mL
Tmax ([4]; human, plasma, oral, week 4, 600 mg q.d., read-out: median tmax): 4 h
trough plasma concentration (Cτ) ([4]; week 4, 600 mg q.d.): 604 ng/mL
Compound I concentration ([8]; D 14 - 6 h post-dose): 6506 nM and 3830 ng/mL
Compound I concentration ([8]; D 14 - 24 h post-dose): 421 nM and 249 ng/mL
SMILES: CCc1nc2c(C)cc(N3CCN(CC(=O)N4CC(O)C4)CC3)cn2c1N(C)c1nc(-c2ccc(F)cc2)c(C#N)s1 [Compound 1]
LPA C8:2 % reduction ([2]; D 14 - 6 h post-dose): 83%
LPA C8:2 % reduction ([2]; D 14 - 24 h post-dose): 66%
FVC CFB ([3]; 600 mg q.d., Week 4, IPF subjects): +116 mL
FVC CFB ([3]; 600 mg q.d., Week 8, IPF subjects): +15 mL
FVC CFB ([3]; 600 mg q.d., Week 12, IPF subjects, mean from baseline, listed as Cpd I): +8 mL
FVC CFB ([3]; 600 mg q.d., Week 12, IPF subjects, mean from baseline, listed as compound according to Formula I): 8 mL
FVC CFB ([3]; Follow up (2 weeks after last administration of 600 mg q.d.)): -55 mL
LPA18:2 percentage reduction ([5]; 600 mg q.d., Week 4, positive value = reduction): 52.48%
LPA18:2 percentage reduction ([5]; 600 mg q.d., Week 12, positive value = reduction): 67.48%
LPA18:2 percentage reduction ([5]; Follow up visit, negative value = increase in LPA levels): −34.36%
LPA 18:2 % reduction ([5]; Week 4 - 0 h post-dose (second line so labelled, r10)): 88%
LPA 18:2 % reduction ([5]; Week 4 - 0 h post-dose): 52%
LPA 18:2 % reduction ([5]; Week 12 - 0 h post-dose): 68%
LPA 18:2 levels after stopping the administration (in words) ([5]; after stopping administration): levels returning to or above baseline levels
LPA 18:2 levels on administration (in words) ([5]; during administration, 600 mg q.d.): stable decrease in LPA 18:2 levels
Specific airway resistance ([6]; Baseline, Compound 1 group): 0.11 kPa/sec
Specific airway volume ([6]; Baseline, Compound 1 group): 3.92 mL/L
Specific airway resistance ([6]; Week 12, 600 mg q.d.): 0.12 kPa/sec
Specific airway volume ([6]; Week 12, 600 mg q.d.): 3.80 mL/L
airway resistance (in words) ([6]; baseline vs Week 12): stabilization
airway volume (in words) ([6]; baseline vs Week 12): stabilization
surfactant protein A in blood (in words) [7]: statistically significant increase
